We go through 26 compounds from patent US20230148214A1, “INDAZOLES AND AZAINDAZOLES AS LRRK2 INHIBITORS” (ESCAPE Bio, Inc., priority 2020, published 2023).

pIC50: −log10 of the molar value. Bounds are passed on as bounds.

The target of assay [1] is T1, LRRK2 WT (Homo sapiens, UniProt Q5S007).
T1 construct: purchased Life Technologies PR8604B
Put plainly: LRRK2 Kinase Activity Assay (LanthaScreen TR-FRET), wild type. The note with it: recombinant wild type LRRK2, 25 μM ATP, 400 nM LRRKtide, 60 min; class symbols. Type of assay: biochemical. The method, boiled down: (§1)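 IC50 fitted to the compound-dependent loss of TR-FRET signal. Each kinase form, wild type or G2019S, phosphorylated the fluorescein-tagged ERM-derived LRRKtide in the presence of ATP and compound dilutions over 60 min at room temperature; quench contained 10 mM EDTA and 2 nM anti-pERM antibody (final).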

Assay [2] deals with T2, LRRK2 G2019S (Homo sapiens, UniProt Q5S007, G2019S).
T2 construct: purchased Life Technologies PV4881
T2 sequence (Q5S007 whole entry G2019S): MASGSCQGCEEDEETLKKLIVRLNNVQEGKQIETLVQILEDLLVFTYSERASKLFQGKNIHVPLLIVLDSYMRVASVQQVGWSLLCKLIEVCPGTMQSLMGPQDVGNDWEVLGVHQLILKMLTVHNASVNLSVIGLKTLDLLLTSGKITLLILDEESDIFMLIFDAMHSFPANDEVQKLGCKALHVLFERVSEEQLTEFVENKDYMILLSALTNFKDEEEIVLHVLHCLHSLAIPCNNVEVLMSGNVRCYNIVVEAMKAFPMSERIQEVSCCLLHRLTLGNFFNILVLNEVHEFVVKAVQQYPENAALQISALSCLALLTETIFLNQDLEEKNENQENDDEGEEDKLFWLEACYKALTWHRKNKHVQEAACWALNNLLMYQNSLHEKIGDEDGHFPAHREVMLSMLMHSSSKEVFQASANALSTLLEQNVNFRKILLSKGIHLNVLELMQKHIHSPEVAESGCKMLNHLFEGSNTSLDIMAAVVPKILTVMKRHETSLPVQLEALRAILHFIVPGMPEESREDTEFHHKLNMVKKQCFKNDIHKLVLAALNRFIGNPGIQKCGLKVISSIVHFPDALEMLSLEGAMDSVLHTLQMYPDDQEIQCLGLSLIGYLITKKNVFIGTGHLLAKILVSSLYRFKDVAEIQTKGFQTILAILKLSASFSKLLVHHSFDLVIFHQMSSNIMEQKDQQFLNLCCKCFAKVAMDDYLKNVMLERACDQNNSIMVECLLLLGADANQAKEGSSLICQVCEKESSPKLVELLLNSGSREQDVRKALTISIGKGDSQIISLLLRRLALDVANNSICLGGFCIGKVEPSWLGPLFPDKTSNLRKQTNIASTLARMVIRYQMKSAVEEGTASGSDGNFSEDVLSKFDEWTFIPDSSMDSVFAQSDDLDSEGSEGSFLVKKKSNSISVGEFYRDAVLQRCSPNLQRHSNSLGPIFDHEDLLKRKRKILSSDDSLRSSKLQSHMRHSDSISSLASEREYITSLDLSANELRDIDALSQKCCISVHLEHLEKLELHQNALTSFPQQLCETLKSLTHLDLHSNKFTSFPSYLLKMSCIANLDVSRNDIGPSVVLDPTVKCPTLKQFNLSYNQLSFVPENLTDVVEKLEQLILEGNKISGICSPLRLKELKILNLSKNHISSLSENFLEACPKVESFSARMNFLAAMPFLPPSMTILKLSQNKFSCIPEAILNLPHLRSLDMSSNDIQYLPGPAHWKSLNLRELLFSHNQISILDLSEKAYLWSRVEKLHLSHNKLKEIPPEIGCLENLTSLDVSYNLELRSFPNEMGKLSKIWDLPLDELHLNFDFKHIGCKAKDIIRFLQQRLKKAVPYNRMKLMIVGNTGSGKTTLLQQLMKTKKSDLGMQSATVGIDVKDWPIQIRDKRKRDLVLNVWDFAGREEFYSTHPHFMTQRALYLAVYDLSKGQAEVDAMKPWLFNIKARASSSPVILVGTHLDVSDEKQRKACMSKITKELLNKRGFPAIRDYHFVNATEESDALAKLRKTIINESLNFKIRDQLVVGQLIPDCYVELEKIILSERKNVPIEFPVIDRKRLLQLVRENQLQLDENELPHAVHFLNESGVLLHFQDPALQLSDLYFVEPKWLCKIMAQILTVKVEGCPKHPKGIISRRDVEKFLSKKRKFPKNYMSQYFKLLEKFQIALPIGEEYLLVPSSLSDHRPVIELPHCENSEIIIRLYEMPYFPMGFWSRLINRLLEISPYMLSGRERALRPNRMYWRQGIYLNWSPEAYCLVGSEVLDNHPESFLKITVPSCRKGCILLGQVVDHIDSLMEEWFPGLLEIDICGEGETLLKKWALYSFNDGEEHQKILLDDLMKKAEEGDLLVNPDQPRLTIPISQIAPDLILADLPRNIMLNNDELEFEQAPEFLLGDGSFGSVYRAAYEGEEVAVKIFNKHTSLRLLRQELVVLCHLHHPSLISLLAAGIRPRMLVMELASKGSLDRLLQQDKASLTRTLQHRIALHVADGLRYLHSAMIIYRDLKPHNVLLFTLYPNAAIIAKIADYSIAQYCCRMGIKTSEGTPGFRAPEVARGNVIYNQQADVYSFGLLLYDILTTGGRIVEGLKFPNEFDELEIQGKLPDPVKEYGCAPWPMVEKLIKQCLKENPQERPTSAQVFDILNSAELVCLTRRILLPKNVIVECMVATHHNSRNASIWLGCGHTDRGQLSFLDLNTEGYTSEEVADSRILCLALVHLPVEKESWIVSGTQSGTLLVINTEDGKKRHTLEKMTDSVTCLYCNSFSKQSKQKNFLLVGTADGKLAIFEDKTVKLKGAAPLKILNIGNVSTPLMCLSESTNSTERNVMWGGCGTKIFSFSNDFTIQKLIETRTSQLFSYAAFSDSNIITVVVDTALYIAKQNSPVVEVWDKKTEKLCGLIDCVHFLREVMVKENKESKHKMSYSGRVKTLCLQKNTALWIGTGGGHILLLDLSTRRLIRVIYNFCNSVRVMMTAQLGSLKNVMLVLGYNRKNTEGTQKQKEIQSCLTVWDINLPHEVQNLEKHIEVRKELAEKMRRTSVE
Put plainly: LRRK2 Kinase Activity Assay (LanthaScreen TR-FRET), G2019S. The format is biochemical. The conditions noted are these: recombinant G2019S-LRRK2, 25 μM ATP, 400 nM LRRKtide, 60 min; class symbols. An outline of the steps: as §1
For orientation: Time-resolved FRET reads energy transfer from a long-lived donor to a nearby acceptor.

T1 sequence (Q5S007 whole entry): as the sequence (Q5S007 whole entry G2019S) above, with S2019G counted along it

For `Cc1cc(C#N)cc2c1[C@@H](Oc1ccc3[nH]nc(-c4cnco4)c3c1)CC2` (single isomer, unassigned) [Example 14, enantiomer 1, 7-Methyl-1-((3-(oxazol-5-yl)-1H-indazol-5-yl)oxy)-2,3-dihydro-1H-indene-5-carbonitrile], the pIC50 in assay [1] and in assay [2] was > 7.00 throughout.
For the compound `N#Cc1ccc2c(c1)CCC[C@@H]2Nc1ccc2[nH]nc(I)c2c1` (single isomer, unassigned) [Example 15, enantiomer 1, 5-((3-Iodo-1H-indazol-5-yl)amino)-5,6,7,8-tetrahydronaphthalene-2-carbonitrile], the figures for the pIC50 in assay [1] and in assay [2] were 6.00 to 7.00 and > 7.00, respectively.
On the same counts, the results for `N#Cc1ccc2c(c1)CCC[C@@H]2Nc1ccc2[nH]nc(I)c2c1` (single isomer, unassigned) [Example 15, enantiomer 2, 5-((3-Iodo-1H-indazol-5-yl)amino)-5,6,7,8-tetrahydronaphthalene-2-carbonitrile] are 5.00 to 6.00 and 6.00 to 7.00.
Turning to `N#Cc1cnc2c(c1)CCC[C@@H]2Oc1ccc2[nH]nc(-c3cnco3)c2c1` (single isomer, unassigned) [Example 16, enantiomer 1, 8-((3-(Oxazol-5-yl)-1H-indazol-5-yl)oxy)-5,6,7,8-tetrahydroquinoline-3-carbonitrile], the pIC50 in assay [1] and in assay [2] was > 7.00 in each case.
With `N#Cc1ccc2c(c1)CCC[C@@H]2Oc1ccc2[nH]nc(-c3cnoc3)c2c1` (single isomer, unassigned) [Example 17, enantiomer 1, 5-((3-(Isoxazol-4-yl)-1H-indazol-5-yl)oxy)-5,6,7,8-tetrahydronaphthalene-2-carbonitrile], the pIC50 in assay [1] and in assay [2] was > 7.00 throughout.
Regarding `N#Cc1ccc2c(c1)CCC[C@@H]2Oc1ccc2[nH]nc(-c3cnoc3)c2c1` (single isomer, unassigned) [Example 17, enantiomer 2, 5-((3-(Isoxazol-4-yl)-1H-indazol-5-yl)oxy)-5,6,7,8-tetrahydronaphthalene-2-carbonitrile], the pIC50 (usually −log10 of the IC50, conventionally taken in molar units) in assay [1] was 6.00 to 7.00; in assay [2] it was > 7.00.
Taken in the same sequence, the figures for `N#Cc1ccc2c(c1)CCC[C@@H]2Oc1ccc2[nH]nc(-c3cnco3)c2c1` (single isomer, unassigned) [Example 18, enantiomer 1, 5-((3-(Oxazol-5-yl)-1H-indazol-5-yl)oxy)-5,6,7,8-tetrahydronaphthalene-2-carbonitrile] were > 7.00 and > 7.00.
On the same counts, the results for `Cc1n[nH]c2ccc(O[C@H]3CCCc4cc(C#N)ccc43)cc12` (single isomer, unassigned) [Example 19, enantiomer 1, 5-((3-Methyl-1H-indazol-5-yl)oxy)-5,6,7,8-tetrahydronaphthalene-2-carbonitrile] are 6.00 to 7.00 and 6.00 to 7.00.
Taken in the same sequence, the figures for `Cc1n[nH]c2ccc(O[C@H]3CCCc4cc(C#N)ccc43)cc12` (single isomer, unassigned) [Example 19, enantiomer 2, 5-((3-Methyl-1H-indazol-5-yl)oxy)-5,6,7,8-tetrahydronaphthalene-2-carbonitrile] were 6.00 to 7.00 and > 7.00.
In the case of `N#Cc1ccc2c(c1)CC[C@@H]2Oc1cc2c(-c3cnco3)n[nH]c2cn1` (single isomer, unassigned) [Example 20, enantiomer 1, 1-((3-(Oxazol-5-yl)-1H-pyrazolo[3,4-c]pyridin-5-yl)oxy)-2,3-dihydro-1H-indene-5-carbonitrile], the pIC50 in assay [1] and in assay [2] was > 7.00 throughout.
Consider `N#Cc1ccc2c(c1)CC[C@@H]2Oc1cc2c(-c3cnco3)n[nH]c2cn1` (single isomer, unassigned) [Example 20, enantiomer 2, 1-((3-(Oxazol-5-yl)-1H-pyrazolo[3,4-c]pyridin-5-yl)oxy)-2,3-dihydro-1H-indene-5-carbonitrile], for which the pIC50 in assay [1] is 6.00 to 7.00; in assay [2] it was > 7.00.
As to `N#Cc1ccc2c(c1)CC[C@@H]2Nc1cc2c(-c3cnco3)n[nH]c2cn1` (single isomer, unassigned) [Example 21, enantiomer 1, 1-((3-(Oxazol-5-yl)-1H-pyrazolo[3,4-c]pyridin-5-yl)amino)-2,3-dihydro-1H-indene-5-carbonitrile], the pIC50 in assay [1] and in assay [2] was > 7.00 in each case.
Take `N#Cc1ccc2c(c1)CC[C@@H]2Nc1cc2c(-c3cnco3)n[nH]c2cn1` (single isomer, unassigned) [Example 21, enantiomer 2, 1-((3-(Oxazol-5-yl)-1H-pyrazolo[3,4-c]pyridin-5-yl)amino)-2,3-dihydro-1H-indene-5-carbonitrile]: the pIC50 in assay [1] is 6.00 to 7.00; in assay [2], > 7.00.
As to `Cc1c(C#N)ccc2c1CC[C@@H]2Oc1ccc2[nH]nc(-c3cnco3)c2c1` (single isomer, unassigned) [Example 22, enantiomer 1, 4-Methyl-1-((3-(oxazol-5-yl)-1H-indazol-5-yl)oxy)-2,3-dihydro-1H-indene-5-carbonitrile], the negative-log IC50 (pIC50) in assay [1] and in assay [2] was > 7.00 each time.
For the compound `N#Cc1cc2c(cc1F)[C@@H](Oc1ccc3[nH]nc(-c4cnco4)c3c1)CC2` (single isomer, unassigned) [Example 23, enantiomer 1, 6-Fluoro-1-((3-(oxazol-5-yl)-1H-indazol-5-yl)oxy)-2,3-dihydro-1H-indene-5-carbonitrile], the pIC50 in assay [1] and in assay [2] was > 7.00 in each case.
As for `N#Cc1ccc2c(c1F)CC[C@@H]2Oc1ccc2[nH]nc(-c3cnco3)c2c1` (single isomer, unassigned) [Example 24, enantiomer 1, 4-Fluoro-1-((3-(oxazol-5-yl)-1H-indazol-5-yl)oxy)-2,3-dihydro-1H-indene-5-carbonitrile], the pIC50 in assay [1] and in assay [2] was > 7.00 in each case.
Consider `N#Cc1cc2c(cc1F)[C@@H](Nc1ccc3[nH]nc(-c4cnco4)c3c1)CC2` (single isomer, unassigned) [Example 25, enantiomer 1, 6-Fluoro-1-((3-(oxazol-5-yl)-1H-indazol-5-yl)amino)-2,3-dihydro-1H-indene-5-carbonitrile], for which the pIC50 in assay [1] and in assay [2] was > 7.00 throughout.
Consider `N#Cc1ccc2c(c1F)CC[C@@H]2Nc1ccc2[nH]nc(-c3cnco3)c2c1` (single isomer, unassigned) [Example 26, enantiomer 1, 4-Fluoro-1-((3-(oxazol-5-yl)-1H-indazol-5-yl)amino)-2,3-dihydro-1H-indene-5-carbonitrile], for which the pIC50 in assay [1] and in assay [2] was > 7.00 throughout.
As to `Cc1c(C#N)ccc2c1CC[C@@H]2Nc1ccc2[nH]nc(-c3cnco3)c2c1` (single isomer, unassigned) [Example 27, enantiomer 1, 4-methyl-1-((3-(oxazol-5-yl)-1H-indazol-5-yl)amino)-2,3-dihydro-1H-indene-5-carbonitrile], the pIC50 in assay [1] and in assay [2] was > 7.00 each time.
For the compound `Cc1cc2c(cc1C#N)CC[C@@H]2Nc1ccc2[nH]nc(-c3cnco3)c2c1` (single isomer, unassigned) [Example 28, enantiomer 1, 6-Methyl-1-((3-(oxazol-5-yl)-1H-indazol-5-yl)amino)-2,3-dihydro-1H-indene-5-carbonitrile], the negative-log IC50 (pIC50) in assay [1] was 6.00 to 7.00; in assay [2] it was > 7.00.
On the same counts, the results for `Cc1cc2c(cc1C#N)CC[C@H]2Oc1ccc2[nH]nc(-c3cnco3)c2c1` (single isomer, unassigned) [Example 29, enantiomer 1, 6-Methyl-1-((3-(oxazol-5-yl)-1H-indazol-5-yl)oxy)-2,3-dihydro-1H-indene-5-carbonitrile] are > 7.00 and > 7.00.
Taken in the same sequence, the figures for `N#Cc1ccc2c(c1)CC[C@H]2Nc1ccc2[nH]nc(-c3cnco3)c2n1` (single isomer, unassigned) [Example 30, enantiomer 1, 1-((3-(Oxazol-5-yl)-1H-pyrazolo[4,3-b]pyridin-5-yl)amino)-2,3-dihydro-1H-indene-5-carbonitrile] were > 7.00 and > 7.00.
With `N#Cc1ccc2c(c1)CC[C@H]2Nc1ccc2[nH]nc(-c3cnco3)c2n1` (single isomer, unassigned) [Example 30, enantiomer 2, 1-((3-(Oxazol-5-yl)-1H-pyrazolo[4,3-b]pyridin-5-yl)amino)-2,3-dihydro-1H-indene-5-carbonitrile], the values for the pIC50 in assay [1] and in assay [2] were 6.00 to 7.00 and > 7.00, respectively.
Regarding `N#Cc1ccc2c(c1)CC[C@H]2Oc1ccc2[nH]nc(-c3cnco3)c2n1` (single isomer, unassigned) [Example 31, enantiomer 1, 1-((3-(Oxazol-5-yl)-1H-pyrazolo[4,3-b]pyridin-5-yl)oxy)-2,3-dihydro-1H-indene-5-carbonitrile], the pIC50 in assay [1] and in assay [2] was > 7.00 in each case.
As for `N#Cc1ccc2c(c1)CC[C@H]2Oc1ccc2[nH]nc(-c3cnco3)c2n1` (single isomer, unassigned) [Example 31, enantiomer 2, 1-((3-(Oxazol-5-yl)-1H-pyrazolo[4,3-b]pyridin-5-yl)oxy)-2,3-dihydro-1H-indene-5-carbonitrile], the pIC50 is 6.00 to 7.00 in assay [1] and > 7.00 in assay [2].
Turning to `N#Cc1ccc2c(c1)CCC[C@H]2Oc1cc2c(-c3cnco3)n[nH]c2cn1` (single isomer, unassigned) [Example 32, enantiomer 1, 5-((3-(Oxazol-5-yl)-1H-pyrazolo[3,4-c]pyridin-5-yl)oxy)-5,6,7,8-tetrahydronaphthalene-2-carbonitrile], the results for the pIC50 in assay [1] and in assay [2] were 5.00 to 6.00 and 6.00 to 7.00, respectively.
